Test results published in article PMC6437697 (Journal of Medicinal Chemistry, 2019).

Assays:
Test in all cases: KINOMEscan
Assay type in all cases: binding
Settings in all cases: read-out: % control activity remaining
DMPK = target: T1, DMPK (Homo sapiens, UniProt Q09013)
T1 construct: purchased Eurofins DiscoverX KINOMEscan
T1 sequence (Q09013 1-629): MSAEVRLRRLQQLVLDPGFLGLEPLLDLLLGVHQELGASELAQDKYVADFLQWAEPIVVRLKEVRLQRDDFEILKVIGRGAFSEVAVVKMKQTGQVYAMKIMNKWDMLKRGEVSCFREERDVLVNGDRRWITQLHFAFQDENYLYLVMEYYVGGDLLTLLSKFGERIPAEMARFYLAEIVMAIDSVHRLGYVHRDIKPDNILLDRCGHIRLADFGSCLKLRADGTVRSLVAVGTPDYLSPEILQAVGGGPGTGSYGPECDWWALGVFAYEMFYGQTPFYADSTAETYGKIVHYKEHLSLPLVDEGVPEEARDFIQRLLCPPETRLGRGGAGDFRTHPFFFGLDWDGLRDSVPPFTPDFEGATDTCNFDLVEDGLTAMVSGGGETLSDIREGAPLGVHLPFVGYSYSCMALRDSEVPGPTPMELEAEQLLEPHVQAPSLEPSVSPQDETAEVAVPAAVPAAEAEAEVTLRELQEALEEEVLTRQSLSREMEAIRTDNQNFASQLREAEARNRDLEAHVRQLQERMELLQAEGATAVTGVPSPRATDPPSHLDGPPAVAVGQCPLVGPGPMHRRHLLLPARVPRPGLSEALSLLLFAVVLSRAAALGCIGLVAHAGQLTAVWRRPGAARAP

KIT(A829P) = target: T2, KIT(A829P) (Homo sapiens, UniProt P10721, A829P)
T2 construct: purchased Eurofins DiscoverX KINOMEscan
T2 sequence (P10721 26-976 A829P): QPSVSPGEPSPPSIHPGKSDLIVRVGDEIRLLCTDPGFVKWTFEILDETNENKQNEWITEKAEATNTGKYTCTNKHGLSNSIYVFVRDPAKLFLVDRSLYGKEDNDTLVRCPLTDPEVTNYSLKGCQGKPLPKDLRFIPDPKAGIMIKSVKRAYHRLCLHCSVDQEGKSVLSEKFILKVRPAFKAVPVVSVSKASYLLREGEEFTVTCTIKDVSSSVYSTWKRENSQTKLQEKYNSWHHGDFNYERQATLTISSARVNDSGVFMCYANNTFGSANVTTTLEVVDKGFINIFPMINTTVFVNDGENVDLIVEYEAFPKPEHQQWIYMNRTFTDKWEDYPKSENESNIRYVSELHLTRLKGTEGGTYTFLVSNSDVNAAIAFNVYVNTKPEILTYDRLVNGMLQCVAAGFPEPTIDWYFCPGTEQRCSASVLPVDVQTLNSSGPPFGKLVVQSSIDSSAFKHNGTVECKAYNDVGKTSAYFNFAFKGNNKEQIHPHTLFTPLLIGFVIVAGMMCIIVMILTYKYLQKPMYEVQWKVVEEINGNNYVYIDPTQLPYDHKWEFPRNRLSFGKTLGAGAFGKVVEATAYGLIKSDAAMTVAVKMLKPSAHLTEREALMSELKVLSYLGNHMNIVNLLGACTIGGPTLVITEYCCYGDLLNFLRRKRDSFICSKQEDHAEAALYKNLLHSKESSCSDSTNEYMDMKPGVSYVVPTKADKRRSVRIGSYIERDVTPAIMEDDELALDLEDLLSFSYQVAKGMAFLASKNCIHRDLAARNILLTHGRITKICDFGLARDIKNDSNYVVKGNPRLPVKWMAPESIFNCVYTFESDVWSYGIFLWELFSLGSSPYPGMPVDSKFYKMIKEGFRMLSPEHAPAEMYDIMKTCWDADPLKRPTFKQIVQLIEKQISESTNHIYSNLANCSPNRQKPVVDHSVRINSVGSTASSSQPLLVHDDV

MAP3K2 = target: T3, MAP3K2 (Homo sapiens, UniProt Q9Y2U5)
T3 construct: purchased Eurofins DiscoverX KINOMEscan
T3 sequence (Q9Y2U5 1-619): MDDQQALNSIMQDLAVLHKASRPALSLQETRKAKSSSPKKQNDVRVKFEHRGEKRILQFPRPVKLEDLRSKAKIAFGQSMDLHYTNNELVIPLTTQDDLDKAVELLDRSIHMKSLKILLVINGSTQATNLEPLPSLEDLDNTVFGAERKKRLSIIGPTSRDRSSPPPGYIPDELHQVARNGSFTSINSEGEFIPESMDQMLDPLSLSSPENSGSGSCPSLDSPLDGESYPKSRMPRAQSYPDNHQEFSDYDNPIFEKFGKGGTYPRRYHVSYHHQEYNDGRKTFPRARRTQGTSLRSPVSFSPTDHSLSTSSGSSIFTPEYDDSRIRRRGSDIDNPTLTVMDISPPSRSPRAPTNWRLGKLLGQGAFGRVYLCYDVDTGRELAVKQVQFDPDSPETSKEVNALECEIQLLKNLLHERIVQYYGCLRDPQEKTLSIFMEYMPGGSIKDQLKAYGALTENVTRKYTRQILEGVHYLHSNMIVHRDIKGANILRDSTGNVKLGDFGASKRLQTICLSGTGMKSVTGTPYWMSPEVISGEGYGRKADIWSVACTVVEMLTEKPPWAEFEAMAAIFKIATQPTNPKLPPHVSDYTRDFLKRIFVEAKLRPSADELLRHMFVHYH

MAP4K2 = target: T4, MAP4K2 (Homo sapiens, UniProt Q12851)
T4 construct: purchased Eurofins DiscoverX KINOMEscan
T4 sequence (Q12851 1-820): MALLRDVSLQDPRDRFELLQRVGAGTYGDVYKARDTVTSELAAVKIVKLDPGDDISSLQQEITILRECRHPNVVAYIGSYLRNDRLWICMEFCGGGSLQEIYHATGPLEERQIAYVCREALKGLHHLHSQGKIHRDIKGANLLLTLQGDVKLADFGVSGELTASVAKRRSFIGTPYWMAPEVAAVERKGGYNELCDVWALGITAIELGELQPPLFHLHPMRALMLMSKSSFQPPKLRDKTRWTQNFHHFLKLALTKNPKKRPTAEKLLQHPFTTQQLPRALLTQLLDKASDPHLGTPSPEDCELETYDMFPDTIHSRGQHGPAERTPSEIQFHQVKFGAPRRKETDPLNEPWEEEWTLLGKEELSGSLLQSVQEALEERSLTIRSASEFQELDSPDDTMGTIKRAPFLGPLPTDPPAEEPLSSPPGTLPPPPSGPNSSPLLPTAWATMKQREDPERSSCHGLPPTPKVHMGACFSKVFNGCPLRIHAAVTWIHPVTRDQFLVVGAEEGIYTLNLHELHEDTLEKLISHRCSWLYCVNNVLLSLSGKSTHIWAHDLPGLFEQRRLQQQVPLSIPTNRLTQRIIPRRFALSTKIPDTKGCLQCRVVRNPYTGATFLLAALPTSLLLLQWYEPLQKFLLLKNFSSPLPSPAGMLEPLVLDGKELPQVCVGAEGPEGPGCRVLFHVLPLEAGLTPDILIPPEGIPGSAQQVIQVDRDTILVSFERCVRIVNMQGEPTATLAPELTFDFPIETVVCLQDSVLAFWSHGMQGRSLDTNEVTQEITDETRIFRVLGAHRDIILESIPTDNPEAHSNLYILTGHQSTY

QSK = target: T5, QSK (Homo sapiens, UniProt Q9Y2K2)
T5 construct: purchased Eurofins DiscoverX KINOMEscan
T5 sequence (Q9Y2K2 whole entry): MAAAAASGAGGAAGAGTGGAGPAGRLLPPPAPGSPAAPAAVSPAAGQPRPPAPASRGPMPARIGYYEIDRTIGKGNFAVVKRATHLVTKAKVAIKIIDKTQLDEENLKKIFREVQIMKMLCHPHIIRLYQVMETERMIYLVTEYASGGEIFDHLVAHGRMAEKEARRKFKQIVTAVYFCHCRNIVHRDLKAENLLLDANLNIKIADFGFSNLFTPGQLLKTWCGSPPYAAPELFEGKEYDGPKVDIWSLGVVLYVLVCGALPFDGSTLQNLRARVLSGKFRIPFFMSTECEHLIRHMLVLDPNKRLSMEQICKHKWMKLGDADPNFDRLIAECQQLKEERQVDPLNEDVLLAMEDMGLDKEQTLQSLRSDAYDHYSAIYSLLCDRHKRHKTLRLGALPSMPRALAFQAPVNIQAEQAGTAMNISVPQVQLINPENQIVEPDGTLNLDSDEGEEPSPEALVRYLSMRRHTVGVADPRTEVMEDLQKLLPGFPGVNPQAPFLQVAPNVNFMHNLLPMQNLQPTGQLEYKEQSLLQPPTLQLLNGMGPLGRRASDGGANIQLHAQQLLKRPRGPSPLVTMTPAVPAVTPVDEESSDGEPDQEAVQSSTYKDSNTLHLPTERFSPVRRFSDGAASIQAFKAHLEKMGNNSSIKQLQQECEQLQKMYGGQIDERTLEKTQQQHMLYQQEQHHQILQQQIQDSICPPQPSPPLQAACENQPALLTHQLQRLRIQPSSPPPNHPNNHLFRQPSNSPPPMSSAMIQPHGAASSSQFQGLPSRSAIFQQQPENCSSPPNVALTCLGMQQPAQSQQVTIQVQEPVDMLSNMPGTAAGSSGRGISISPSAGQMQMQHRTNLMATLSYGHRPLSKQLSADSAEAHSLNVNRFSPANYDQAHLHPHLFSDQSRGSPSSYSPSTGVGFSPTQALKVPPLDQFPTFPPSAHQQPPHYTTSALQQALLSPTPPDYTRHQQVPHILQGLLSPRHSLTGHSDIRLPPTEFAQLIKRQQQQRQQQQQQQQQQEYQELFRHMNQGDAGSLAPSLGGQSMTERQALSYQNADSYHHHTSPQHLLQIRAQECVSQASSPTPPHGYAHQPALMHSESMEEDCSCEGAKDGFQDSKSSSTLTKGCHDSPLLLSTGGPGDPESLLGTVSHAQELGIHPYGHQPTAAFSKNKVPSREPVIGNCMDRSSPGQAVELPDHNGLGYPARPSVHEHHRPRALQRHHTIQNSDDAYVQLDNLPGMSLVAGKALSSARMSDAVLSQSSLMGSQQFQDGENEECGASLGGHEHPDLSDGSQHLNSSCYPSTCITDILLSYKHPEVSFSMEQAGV

ZAK = target: T6, ZAK (Homo sapiens, UniProt Q9NYL2)
T6 construct: purchased Eurofins DiscoverX KINOMEscan
T6 sequence (Q9NYL2 whole entry): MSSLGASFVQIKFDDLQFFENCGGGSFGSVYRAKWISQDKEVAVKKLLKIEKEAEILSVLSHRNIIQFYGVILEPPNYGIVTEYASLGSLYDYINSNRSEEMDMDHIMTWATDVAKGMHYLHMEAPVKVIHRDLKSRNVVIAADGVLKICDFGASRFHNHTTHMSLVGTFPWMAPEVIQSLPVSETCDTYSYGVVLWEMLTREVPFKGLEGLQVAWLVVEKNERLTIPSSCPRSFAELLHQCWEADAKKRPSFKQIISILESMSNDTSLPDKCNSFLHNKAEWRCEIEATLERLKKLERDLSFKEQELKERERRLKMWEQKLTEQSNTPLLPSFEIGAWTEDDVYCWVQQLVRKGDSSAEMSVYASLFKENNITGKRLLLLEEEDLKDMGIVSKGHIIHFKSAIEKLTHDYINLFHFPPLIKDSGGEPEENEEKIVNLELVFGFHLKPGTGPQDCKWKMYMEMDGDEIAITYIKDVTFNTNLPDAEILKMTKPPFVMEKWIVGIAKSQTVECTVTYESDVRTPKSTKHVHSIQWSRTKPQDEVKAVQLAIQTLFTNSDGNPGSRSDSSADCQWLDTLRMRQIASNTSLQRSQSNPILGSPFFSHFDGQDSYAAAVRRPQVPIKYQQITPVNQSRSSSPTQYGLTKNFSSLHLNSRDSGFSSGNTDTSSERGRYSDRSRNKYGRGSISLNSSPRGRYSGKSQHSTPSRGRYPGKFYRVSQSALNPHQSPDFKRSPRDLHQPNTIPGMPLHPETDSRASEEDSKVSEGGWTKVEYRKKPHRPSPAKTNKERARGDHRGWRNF

Structure (SMILES) | remaining binding at 1 µM (DMPK) | remaining binding at 1 µM (KIT(A829P)) | remaining binding at 1 µM (MAP3K2) | remaining binding at 1 µM (MAP4K2) | remaining binding at 1 µM (QSK) | remaining binding at 1 µM (ZAK)
CN1CCC(CNc2cc(Cl)nn3c(-c4cc5nc(Nc6ccccc6)[nH]c5cc4F)cnc23)CC1 [compound 31, 6-Chloro-3-(6-fluoro-2-(phenylamino)-1H-benzo[d]imidazol-5-yl)-N-((1-methylpiperidin-4-yl)methyl)imidazo[1,2-b]pyridazin-8-amine] | 89% | 94% | 62% | 85% | 100% | 93%
O=C(CN1CCOCC1)N[C@H]1CC[C@H](Nc2cc(Cl)nn3c(-c4ccc5[nH]ncc5c4)cnc23)CC1 [compound 26] | 99% | 45% | 100% | 76% | 82% | 87%
Clc1cc(NCC2CC2)c2ncc(-c3ccc4[nH]ncc4c3)n2n1 [compound 2, 6-Chloro-N-(cyclopropylmethyl)-3-(1H-indazol-5-yl)imidazo[1,2-b]pyridazin-8-amine] | 84% | 75% | 74% | 99% | 78% | 86%
